# Reference: patent US20220402917A1, “COMPOUND AS SMALL MOLECULE INHIBITOR PD-1/PD-L1 AND APPLICATION THEREOF” (MEDSHINE DISCOVERY INC., priority 2019, published 2022)
# pIC50: −log10 of the molar value.
# Experiments:
# [1] = target: T1, PD-L1 in MDA-MR-231 cells (Homo sapiens, UniProt Q9NZQ7); test: Effect on expression level of PD-L1 in MDA-MR-231 cells (FACS); format: cell-based; details: 24 hours incubation, FACS detection of cell surface PD-L1
# T1 construct: endogenous in cells; host or cells: MDA-MB-231
# Experimental: Experimental Example 2: Using MDA-MR-231 Cells to Detect the Effect of Compounds on the Expression Level of PD-L1
# The use of a triple-negative breast cancer cell line (MDA-MB-231) is an indirect method to assess PD-L1 endocytosis. PD-L1 molecules on the cell surface can be degraded by lysosomal and proteasome pathways, and small molecule inhibitors are added to induce PD-L1 endocytosis. After co-incubating small molecules with MDA-MB-231 cells for 24 hours, flow cytometry (Fluorescence-activated Cell Sorting, FACS) is used to detect the content of PD-L1 on the cell surface, which can indirectly reflect the effect of small molecule-induced PD-L1 endocytosis. Flow cytometry (FACS) is used to detect the effect of the compounds of the present disclosure on the expression level of PD-L1 in MDA-MR-231 cells.
# Phosphate buffer (DPBS), 1640 medium, penicillin-streptomycin, fetal bovine serum, non-essential amino acids, 2-hydroxy-1-ethanethiol (2-ME), human interferon γ, LIVE/DEAD staining solution, staining buffer, fixation buffer, 0.25% trypsin, EDTA, anti-human PD-L1, anti-human PD-L1 isotype.
# 1640 complete medium preparation: 50 mL of fetal bovine serum, 5 mL of non-essential amino acids, 5 mL of penicillin-streptomycin and 0.5 mL of 2-hydroxy-1-ethanethiol were added to 439.5 mL of 1640 medium, and evenly mixed.
# 10 mM EDTA preparation: 1 mL of 0.5M EDTA was added to 49 mL of DPBS, and evenly mixed.
# 1) MDA-MB-231 cell counting and plating: The culture flask was taken out, the medium was removed and the culture flask was rinsed once with DPBS. After the culture flask was rinsed, 3 mL of 0.25% trypsin was added to the culture flask and the culture flask was placed in a 37° C. incubator for 1.5 min. The culture flask was taken out, 9 mL of 1640 complete medium was added to stop the reaction, the cells was transferred to a 50 mL centrifuge tube, and centrifuged at 1000 rpm for 5 min at 37° C. An appropriate volume of medium was added to re-suspend the cells according to the number of cells, and the number of cells was counted with a cell counter. The cell concentration was adjusted to 5×10^5 cells/mL with medium. Planking: A volume of 200 μL of cell suspension was added to each well of a 96-well plate, ensure that the number of cells in each well was 1×10^5. The cells were incubated overnight in an incubator. 2) Drug incubation: 100-fold dilution of compounds were prepared, and the drug was subjected to a 5-fold gradient dilution. 2 μL of each 100-fold dilution of compounds were added to each well. The cells were incubated in an incubator at 37° C. for 24 hours. 3) PD-L1 cell staining and FACS detection: the culture plate was taken out and the supernatant medium was discarded. The cells were washed once with 200 μL 1×PBS. 100 μL of EDTA (final concentration of 10 mM) was added to the cell suspension, and the cell suspension was treated at 37° C. for 10 min. Then after the cell suspension was centrifuged at 1500 rpm for 5 min, the cell suspension was washed once with 200 μL of staining solution. Staining: anti-human PD-L1 (2 μL per well) and LIVE/DEAD staining solution (1:1000) were diluted in staining solution, 50 μL of the staining solution was added to each well, and the staining was conducted at 4° C. for 30 min. Then the solution was washed twice with 200 μL of staining solution. Fixation: 100 μL of fixing solution was added to each well, the fixation was conducted at 4° C. for 15 min. The solution was then washed twice with 200 μL of staining solution, and 150 μL of solution was added to re-suspend the cells, followed by FACS detection.
# Table 2 provides the effects of the compounds of the examples of the present disclosure on the expression level of PD-L1 in MDA-MR-231 cells.
# PD1/PD-L1 = PD1/PD-L1 (Homo sapiens, UniProt Q9NZQ7); test: NFAT activity test (TCR Activitor/PD-L1 CHO cells with PD-1/NFAT Reporter-Jurkat cells); format: cell-based; set-up: host or cells: TCR Activitor/PD-L1 CHO cells; PD-1/NFAT Reporter-Jurkat cells; details: TCR Activitor/PD-L1 CHO cells + PD-1/NFAT Reporter-Jurkat cells, 5 hours, luciferase; for pIC50: read-out: IC50, inhibitory activity on PD1/PD-L1 binding (NFAT activity test)
# Source text: Experimental Example 3: NFAT Activity Test
# The engineered T cell expresses PD-1 molecules and T cell receptor (TCR) on the surface, which can activate the NFAT signaling pathway of T cells after co-culturing with engineered antigen presenting cells (APCs). Expression of PD-L1 molecules on APCs can effectively attenuate the NFAT signaling pathway in T cells. PD-L1 inhibitors can be used effectively block the PD-1/PD-L1 regulatory mechanism, thereby reversing the weakened NFAT signaling pathway. After being pretreated with APC, the small molecule is co-cultured with T cells, then the expression of luciferase was detected to indirectly reflect the activation of the NFAT pathway in T cells.
# The PD1/PD-L1 NFAT detection kit was purchased from BPS Biosciences. Birght-Glo reagent was purchased from Promega. Nivo multi-label analyzer (PerkinElmer).
# The TCR Activitor/PD-L1 CHO cells with a growth confluence of 80% were plated into the plate at 35,000 cells per well and placed in a 37° C. cell culture incubator overnight; the compounds to be tested were diluted 5-fold to the 8th concentration, from 20 μM to 0.25 nM, and the DMSO concentration was 2%, a double-well experiment was set up. The TCR Activitor/PD-L1 CHO cell supernatant was discarded, 50 μl of compound working solution was added to each well, incubated at 37° C. for 30 minutes; after the incubation was completed, 50 μL of PD-1/NFAT Reporter-Jurkat cell suspension with a concentration of 4*10^5 cells/mL was added to each well, incubated at 37° C. for 5 hours. After the incubation was completed, 100 μL Bright-Glo was added to each well, and after mixing, the chemiluminescence signal was detected by a Nivo multi-label analyzer.
# Using the equation (sample−Min)/(Max−Min)×100% to convert the raw data into inhibition rate, and the IC50 value can be obtained by curve fitting with four parameters (obtained from log(inhibitor) vs. response—Variable slope mode in GraphPad Prism). Table 3 provides the inhibitory activity of the compounds of the examples of the present disclosure on PD1/PD-L1 binding.
# Sequence of PD1/PD-L1 (Q9NZQ7 19-290): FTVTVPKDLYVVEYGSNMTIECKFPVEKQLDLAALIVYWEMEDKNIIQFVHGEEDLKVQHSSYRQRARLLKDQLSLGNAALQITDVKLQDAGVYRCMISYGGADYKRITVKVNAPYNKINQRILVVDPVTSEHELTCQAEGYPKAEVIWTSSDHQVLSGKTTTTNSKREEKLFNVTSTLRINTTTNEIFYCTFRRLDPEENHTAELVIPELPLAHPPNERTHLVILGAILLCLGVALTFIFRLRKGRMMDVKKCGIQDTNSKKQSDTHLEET
# T1 sequence (Q9NZQ7 19-290): as above
SMILES,pIC50 [1],Maximum effect (induction fold) (PD1/PD-L1),pIC50 (PD1/PD-L1)
COc1nc(-c2cccc(-c3cccc(NC(=O)c4cc(C)c5c(n4)CN(CC(=O)O)CC5)c3Cl)c2C)cnc1CN1CC(O)C1 [Compound 22],7.10,3.79,7.23
COc1nc(-c2cccc(-c3cccc(NC(=O)c4cc(C)c5c(n4)CN(CCO)CC5)c3Cl)c2Cl)cnc1CN1CC(C)(O)C1 [Compound 25],8.00,3.39,7.53
COc1nc(-c2cccc(-c3cccc(NC(=O)c4cc(C)c5c(n4)CN(C(C)CO)CC5)c3Cl)c2Cl)cnc1CN1CC(O)C1 (stereo not drawn) [Compound 27],7.84,3.48,7.54
COc1nc(-c2cccc(-c3cccc(NC(=O)c4cc(C)c5c(n4)CN(CC4(CO)CC4)CC5)c3Cl)c2Cl)cnc1CN1CC(O)C1 [Compound 29],,3.52,7.28
COc1nc(-c2cccc(-c3cccc(NC(=O)c4cc(C)c5c(n4)CN(CC(O)CO)CC5)c3Cl)c2Cl)cnc1CN1CC(O)C1 (stereo not drawn) [Compound 30],7.98,4.80,7.58
COc1nc(-c2cccc(-c3cccc(NC(=O)c4cc(C)c5c(n4)CCN(CCO)C5)c3Cl)c2Cl)cnc1CN1CC(O)C1 [Compound 43],,5.16,6.62
COc1nc(-c2cccc(-c3cccc(NC(=O)c4cc(OCC#N)c5c(n4)CN(CCO)CC5)c3Cl)c2Cl)cnc1CN1CC(O)C1 [Compound 52],,4.74,7.29
COc1cc(C(=O)Nc2cccc(-c3cccc(-c4cnc(CN5CC6(CC(O)C6)C5)c(OC)n4)c3Cl)c2Cl)nc2c1CCN(CCO)C2 [Compound 53],,3.81,7.86
COc1cc(C(=O)Nc2cccc(-c3cccc(-c4cnc(CN5CC(CO)C5)c(OC)n4)c3Cl)c2Cl)nc2c1CCN(CCO)C2 [Compound 55],,4.56,7.60
COc1cc(C(=O)Nc2cccc(-c3cccc(-c4cnc(CN5CCC(CO)C5)c(OC)n4)c3Cl)c2Cl)nc2c1CCN(CCO)C2 (stereo not drawn) [Compound 56],,2.75,8.00
COc1nc(-c2cccc(-c3cccc(NC(=O)c4cc(C#N)c5c(n4)CN(CCO)CC5)c3Cl)c2Cl)cnc1CN1CC2(CC(O)C2)C1 [Compound 57],,4.42,7.39
COc1nc(-c2cccc(-c3cccc(NC(=O)c4cc(C#N)c5c(n4)CN(CCO)CC5)c3Cl)c2Cl)cnc1CN1CC(CO)C1 [Compound 60],,4.95,7.26
COc1nc(-c2cccc(-c3cccc(NC(=O)c4cc(OC(F)F)c5c(n4)CN(CCO)CC5)c3Cl)c2Cl)cnc1CN1CC2(CC(O)C2)C1 [Compound 62],,4.37,7.87
COc1nc(-c2cccc(-c3cccc(NC(=O)c4cc(OC(F)F)c5c(n4)CN(CCO)CC5)c3Cl)c2Cl)cnc1CN1CC(C)(O)C1 [Compound 63],,6.40,6.85
COc1nc(-c2cccc(-c3cccc(NC(=O)c4cc(OC(F)F)c5c(n4)CN(CCO)CC5)c3Cl)c2Cl)cnc1CN1CCC(CO)C1 (stereo not drawn) [Compound 64],,3.98,7.78

# Continued, values first:
pIC50 [1],Maximum effect (induction fold) (PD1/PD-L1),pIC50 (PD1/PD-L1),SMILES
7.49,3.68,7.79,Cc1cc(C(=O)Nc2cccc(-c3cccc(NC(=O)c4ccc(CNCCO)cn4)c3Cl)c2Cl)nc2c1CCN(CCO)C2 [Compound 5]
7.39,3.77,7.49,Cc1cc(C(=O)Nc2cccc(-c3cccc(NC(=O)c4ccc(CNCCO)cn4)c3C)c2Cl)nc2c1CCN(CCO)C2 [Compound 9]
7.01,,,Cc1cc(C(=O)Nc2cccc(-c3cccc(NC(=O)c4ccc(CNCCO)cn4)c3C)c2Cl)nc2c1CCN(C1CCNCC1)C2 [Compound 14]
,3.63,7.46,COc1nc(-c2cccc(-c3cccc(NC(=O)c4cc(C)c5c(n4)CN(CC(C)(C)O)CC5)c3Cl)c2Cl)cnc1CN1CC(O)C1 [Compound 28]
8.07,4.12,7.65,COc1nc(-c2cccc(-c3cccc(NC(=O)c4cc(C)c5c(n4)CN(CCO)CC5)c3Cl)c2Cl)cnc1CNCCO [Compound 31]
7.55,,,COc1nc(-c2cccc(-c3cccc(NC(=O)c4cc(C)c5c(n4)CN(CCO)CC5)c3Cl)c2Cl)ccc1CN1CC(O)C1 [Compound 37]
,5.15,6.69,COc1nc(-c2cccc(-c3cccc(NC(=O)c4cc(C)c5c(n4)CN(CC(C)O)CC5)c3Cl)c2Cl)cnc1CN1CC(O)C1 (stereo not drawn) [Compound 44]
,3.91,7.41,COc1cc(C(=O)Nc2cccc(-c3cccc(-c4cnc(CNCCO)c(OC)n4)c3Cl)c2Cl)nc2c1CCN(CCO)C2 [Compound 54]
,5.01,6.99,COc1nc(-c2cccc(-c3cccc(NC(=O)c4cc(C#N)c5c(n4)CN(CCO)CC5)c3Cl)c2Cl)cnc1CN1CC(C)(O)C1 [Compound 58]
,5.35,6.78,COc1nc(-c2cccc(-c3cccc(NC(=O)c4cc(C#N)c5c(n4)CN(CCO)CC5)c3Cl)c2Cl)cnc1CNCCO [Compound 59]
,4.99,7.27,COc1nc(-c2cccc(-c3cccc(NC(=O)c4cc(C#N)c5c(n4)CN(CCO)CC5)c3Cl)c2Cl)cnc1CN1CCC(CO)C1 (stereo not drawn) [Compound 61]
